The text below walks through data of publication PMC7588185 (2020).

SMILES strings stand for the structures.

In general, Kd refers to the constant that tells how readily two partners part at equilibrium. Read a high Kd as weaker binding.

This experiment relates to aad-4 riboswitch RNA (aad-4 leader RNA) (RNA, riboswitch) GGAGCAGCAACGAUGUUACGCAGCAGGGCAGUCGCCCUAAACAAAGUUAGGCCGCAUGGACACAACGCAGGUCACAUUGAUACACCAAAUUCUAGCUGCGGCAGAUGAGCGAAAU
The experiment is described as follows: MicroScale Thermophoresis. The settings on record: 100 mM KCl, 0.1 mM MgCl2, 10 mM HEPES pH 7.5, FTSC-labelled RNA. Background: MST reads how a fluorescent partner responds to local heating, with and without ligand.

The mark [1] stands for this setting: only group range 1.2–3.9 µM given.

Consider `NC[C@H]1O[C@H](O[C@H]2[C@H](O)[C@@H](O)[C@H](N)C[C@@H]2N)[C@H](N)[C@@H](O)[C@@H]1O`, for which the Kd is reported as 12 µM.
`NC[C@H]1O[C@H](O[C@H]2[C@H](O[C@@H]3O[C@H](CO)[C@@H](O)[C@H]3O)[C@@H](O)[C@H](N)C[C@@H]2N)[C@H](N)[C@@H](O)[C@@H]1O` registered a Kd of 40 µM.
In turn, `NC[C@H]1O[C@H](O[C@H]2[C@H](O)[C@@H](O[C@H]3O[C@H](CO)[C@@H](O)[C@H](N)[C@H]3O)[C@H](N)C[C@@H]2N)[C@H](N)C[C@@H]1O` registered a dissociation constant Kd under setting [1] of 1.58 ± 0.28 µM.
Still for that read-out and setting: under `NC[C@H]1O[C@H](O[C@H]2[C@H](O)[C@@H](O[C@H]3O[C@H](CO)[C@@H](O)[C@H](N)[C@H]3O)[C@H](N)C[C@@H]2N)[C@H](N)[C@@H](O)[C@@H]1O` stands 2.55 ± 0.24 µM; under `CN[C@@H]1[C@@H](O)[C@@H](O[C@@H]2[C@@H](O)[C@H](O[C@H]3OC(CN)=CC[C@H]3N)[C@@H](N)C[C@H]2N)OC[C@]1(C)O`, 2.16 ± 0.25 µM.
For `NC[C@@H]1O[C@H](O[C@H]2[C@@H](O)[C@H](O[C@@H]3[C@@H](O)[C@H](N)C[C@H](N)[C@H]3O[C@H]3O[C@H](CO)[C@@H](O)[C@H](O)[C@H]3N)O[C@@H]2CO)[C@H](N)[C@@H](O)[C@@H]1O`, the Kd came to 10 µM.
